Tests used:
Conditions in all cases: incubation time: 72 h
CAL-85-1 [1] = assay: normalised viability (% of control), CellTiter-Blue; higher = more viable cells (about 100 = DMSO control)
In short: (§1)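 Vehicle (100) and a positive kill control (0) anchored the normalisation of each plate, and Z'-factor was used for quality control. Breast cancer cell lines in 20 µl suspension were incubated 72 h over compound in 5 µl medium in 384-well plates, followed by CellTiter-Blue at 560/590 nm. The value is normalised viability at a single listed concentration of the series.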

DU-4475 [2] = assay: as above
In short: as §1

CAL-120 = assay: as above
In short: as §1

CAL-51 = assay: as above
In short: as §1

HCC1599 = assay: as above
In short: as §1

SK-BR-3 [3] = assay: as above
In short: as §1

MDA-MB-436 = assay: as above
In short: as §1

BT-474 [4] = assay: as above
In short: as §1

BT-549 [5] = assay: as above
In short: as §1

HDQ-P1 = assay: as above
In short: as §1

HCC1937 [6] = assay: as above
In short: as §1

Hs578T [7] = assay: as above
In short: as §1

MDA-MB-453 = assay: as above
In short: as §1

MDA-MB-468 = assay: as above
In short: as §1

CAL-148 [8] = assay: as above
In short: as §1

MFM-223 = assay: as above
In short: as §1

MDA-MB-231 [9] = assay: as above
In short: as §1

HCC1143 [10] = assay: as above
In short: as §1

CAL-85-1 [11] = assay: drug sensitivity score (DSS), CellTiter-Glo (DSS (AUC-based score)); higher = stronger drug effect (viability inhibition or cytotoxicity); extreme values may be limits of the assay
In short: (§2)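 The area under the fitted dose-response curve was used to calculate the drug sensitivity score. Cells from breast cancer lines were incubated for 72 h in 384-well plates with compound at 5 concentrations spaced 10-fold over a 10,000-fold range specific to each compound. Plates were read for CellTox Green and then CellTiter-Glo, and normalised to 0.1 % DMSO and a positive kill control.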

DU-4475 [12] = assay: as above
In short: as §2

MCF-10A = assay: as above
In short: as §2

SK-BR-3 [13] = assay: as above
In short: as §2

BT-474 [14] = assay: as above
In short: as §2

BT-549 [15] = assay: as above
In short: as §2

HCC1937 [16] = assay: as above
In short: as §2

Hs578T [17] = assay: as above
In short: as §2

CAL-148 [18] = assay: as above
In short: as §2

MDA-MB-231 [19] = assay: as above
In short: as §2

HCC1143 [20] = assay: as above
In short: as §2

SMILES	normalised viability (CAL-85-1 [1]; 10 nM) [%]	normalised viability (DU-4475 [2]; 10 nM) [%]	normalised viability (CAL-120; 100 nM) [%]	normalised viability (CAL-51; 10 nM) [%]	normalised viability (HCC1599; 100 nM) [%]	normalised viability (SK-BR-3 [3]; 100 nM) [%]	normalised viability (MDA-MB-436; 100 nM) [%]	normalised viability (BT-474 [4]; 100 nM) [%]	normalised viability (BT-549 [5]; 100 nM) [%]	drug sensitivity score (CAL-85-1 [11])	drug sensitivity score (DU-4475 [12])	drug sensitivity score (MCF-10A)	drug sensitivity score (SK-BR-3 [13])	drug sensitivity score (BT-474 [14])	drug sensitivity score (BT-549 [15])	drug sensitivity score (HCC1937 [16])	drug sensitivity score (Hs578T [17])	drug sensitivity score (CAL-148 [18])	drug sensitivity score (MDA-MB-231 [19])	drug sensitivity score (HCC1143 [20])	also measured
C[C@]12C=CC(=O)C=C1CC[C@@H]1[C@@H]2C(=O)C[C@@]2(C)[C@H]1CC[C@]2(O)C(=O)CO [Prednisone]	109	97.9	78.2	102	98.5	77	108	117	99.2	0	0	0	0	0	0	0	0	0	0	0	normalised viability (HDQ-P1; 10 nM): 104%; normalised viability (HCC1937 [6]; 100 nM): 100%; normalised viability (Hs578T [7]; 100 nM): 77.9%; normalised viability (MDA-MB-453; 10 nM): 112%; normalised viability (MDA-MB-468; 100 nM): 99.2%; normalised viability (CAL-148 [8]; 10 nM): 98.2%; normalised viability (MFM-223; 100 nM): 92.3%; normalised viability (MDA-MB-231 [9]; 100 nM): 100%; normalised viability (HCC1143 [10]; 100 nM): 101%
O=NN(CCCl)C(=O)NC1CCCCC1 [Lomustine]	93.8	109	97	115	101	97.5	102	111	114	0	0	0	0	0	0	0	0	0	0	0	normalised viability (HDQ-P1; 10 nM): 113%; normalised viability (HCC1937 [6]; 100 nM): 87.3%; normalised viability (Hs578T [7]; 100 nM): 94.6%; normalised viability (MDA-MB-453; 10 nM): 95.5%; normalised viability (MDA-MB-468; 100 nM): 101%; normalised viability (CAL-148 [8]; 10 nM): 93.9%; normalised viability (MFM-223; 100 nM): 89.5%; normalised viability (MDA-MB-231 [9]; 100 nM): 100%; normalised viability (HCC1143 [10]; 100 nM): 93.2%
C[C@@H]1C[C@H]2[C@@H]3CCC4=CC(=O)C=C[C@]4(C)[C@@]3(F)[C@@H](O)C[C@]2(C)[C@@]1(O)C(=O)CO [Dexamethasone]	110	97.2	68.5	94.9	117	70.3	94.9	115	88.6	0	0	0	0	0	0	0	0	0	0	0	normalised viability (HDQ-P1; 10 nM): 113%; normalised viability (HCC1937 [6]; 100 nM): 94%; normalised viability (Hs578T [7]; 100 nM): 97.2%; normalised viability (MDA-MB-453; 10 nM): 93.3%; normalised viability (MDA-MB-468; 100 nM): 119%; normalised viability (CAL-148 [8]; 10 nM): 97.7%; normalised viability (MFM-223; 100 nM): 93.4%; normalised viability (MDA-MB-231 [9]; 100 nM): 121%; normalised viability (HCC1143 [10]; 100 nM): 83.4%
CCN(CC)CCOc1ccc(C(=C(Cl)c2ccccc2)c2ccccc2)cc1 [Clomifene]	96.2	103	94.8	97.5	100	93.4	114	116	118	3.91	2.97	1.05	2.09	4.51	1.96	5.68	4.79	0	5.02	0	normalised viability (HDQ-P1; 10 nM): 115%; normalised viability (HCC1937 [6]; 100 nM): 100%; normalised viability (Hs578T [7]; 100 nM): 95.7%; normalised viability (MDA-MB-453; 10 nM): 103%; normalised viability (MDA-MB-468; 100 nM): 97.5%; normalised viability (CAL-148 [8]; 10 nM): 94%; normalised viability (MFM-223; 100 nM): 103%; normalised viability (MDA-MB-231 [9]; 100 nM): 101%; normalised viability (HCC1143 [10]; 100 nM): 88.5%
NC1(c2ccc(-c3nc4ccn5c(=O)[nH]nc5c4cc3-c3ccccc3)cc2)CCC1 [MK-2206]	–	–	–	–	–	–	–	–	–	0	0.0487	0	3.43	0	2.74	0	0.281	1.35	0	0	normalised viability (CAL-85-1 [1]; 1 nM): 92.2%; normalised viability (DU-4475 [2]; 1 nM): 107%; normalised viability (CAL-120; 10 nM): 106%; normalised viability (CAL-51; 1 nM): 100%; normalised viability (HCC1599; 10 nM): 97.4%; normalised viability (SK-BR-3 [3]; 10 nM): 79%; normalised viability (MDA-MB-436; 10 nM): 107%; normalised viability (BT-474 [4]; 10 nM): 112%; normalised viability (BT-549 [5]; 10 nM): 107%; normalised viability (HDQ-P1; 1 nM): 103%; normalised viability (HCC1937 [6]; 10 nM): 80.7%; normalised viability (Hs578T [7]; 10 nM): 98.5%; normalised viability (MDA-MB-453; 1 nM): 117%; normalised viability (MDA-MB-468; 10 nM): 109%; normalised viability (CAL-148 [8]; 1 nM): 105%; normalised viability (MFM-223; 10 nM): 105%; normalised viability (MDA-MB-231 [9]; 10 nM): 104%; normalised viability (HCC1143 [10]; 10 nM): 121%
CC/C(=C(\c1ccccc1)c1ccc(OCCN(C)C)cc1)c1ccccc1 [Tamoxifen]	102	94.1	106	92	92.5	90.7	97.5	112	88.3	0	0	0	1.07	0	0	1.17	0	0	0	0	normalised viability (HDQ-P1; 10 nM): 104%; normalised viability (HCC1937 [6]; 100 nM): 93.7%; normalised viability (Hs578T [7]; 100 nM): 91.7%; normalised viability (MDA-MB-453; 10 nM): 257%; normalised viability (MDA-MB-468; 100 nM): 122%; normalised viability (CAL-148 [8]; 10 nM): 108%; normalised viability (MFM-223; 100 nM): 95.2%; normalised viability (MDA-MB-231 [9]; 100 nM): 91%; normalised viability (HCC1143 [10]; 100 nM): 126%
N[C@@H](Cc1ccc(N(CCCl)CCCl)cc1)C(=O)O [Melphalan]	–	–	–	–	–	–	–	–	–	17.4	19.1	17.6	20.5	19.2	14.4	20.2	16.2	19.5	20.7	13.9	normalised viability (CAL-85-1 [1]; 0.99 nM): 87.5%; normalised viability (DU-4475 [2]; 0.99 nM): 105%; normalised viability (CAL-120; 9.9 nM): 73.6%; normalised viability (CAL-51; 0.99 nM): 104%; normalised viability (HCC1599; 9.9 nM): 96.1%; normalised viability (SK-BR-3 [3]; 9.9 nM): 86.9%; normalised viability (MDA-MB-436; 9.9 nM): 87.2%; normalised viability (BT-474 [4]; 9.9 nM): 99.3%; normalised viability (BT-549 [5]; 9.9 nM): 110%; normalised viability (HDQ-P1; 0.99 nM): 97.6%; normalised viability (HCC1937 [6]; 9.9 nM): 102%; normalised viability (Hs578T [7]; 9.9 nM): 75.8%; normalised viability (MDA-MB-453; 0.99 nM): 108%; normalised viability (MDA-MB-468; 9.9 nM): 108%; normalised viability (CAL-148 [8]; 0.99 nM): 92.4%; normalised viability (MFM-223; 9.9 nM): 89.9%; normalised viability (MDA-MB-231 [9]; 9.9 nM): 99.8%; normalised viability (HCC1143 [10]; 9.9 nM): 74.2%
COc1cc2c(Oc3ccc(NC(=O)C4(C(=O)Nc5ccc(F)cc5)CC4)cc3F)ccnc2cc1OCCCN1CCOCC1 [Foretinib]	–	–	–	–	–	–	–	–	–	0	0	1.41	0	2.19	0	0	0	1.11	2.4	1.22	normalised viability (CAL-85-1 [1]; 1 nM): 100%; normalised viability (DU-4475 [2]; 1 nM): 96.6%; normalised viability (CAL-120; 10 nM): 89%; normalised viability (CAL-51; 1 nM): 93.2%; normalised viability (HCC1599; 10 nM): 95.3%; normalised viability (SK-BR-3 [3]; 10 nM): 78.8%; normalised viability (MDA-MB-436; 10 nM): 91.8%; normalised viability (BT-474 [4]; 10 nM): 109%; normalised viability (BT-549 [5]; 10 nM): 107%; normalised viability (HDQ-P1; 1 nM): 92.4%; normalised viability (HCC1937 [6]; 10 nM): 97.7%; normalised viability (Hs578T [7]; 10 nM): 97.5%; normalised viability (MDA-MB-453; 1 nM): 91.6%; normalised viability (MDA-MB-468; 10 nM): 134%; normalised viability (CAL-148 [8]; 1 nM): 108%; normalised viability (MFM-223; 10 nM): 80%; normalised viability (MDA-MB-231 [9]; 10 nM): 95.1%; normalised viability (HCC1143 [10]; 10 nM): 99.9%
CN1CCN(c2nc(C3=C(c4c[nH]c5ccccc45)C(=O)NC3=O)c3ccccc3n2)CC1 [Sotrastaurin]	104	95	122	88.2	95	73	96.3	108	86.4	0	1.72	0	1.56	0	0	0	0	0	0	0	normalised viability (HDQ-P1; 10 nM): 89.3%; normalised viability (HCC1937 [6]; 100 nM): 96.3%; normalised viability (Hs578T [7]; 100 nM): 79.9%; normalised viability (MDA-MB-453; 10 nM): 93.4%; normalised viability (MDA-MB-468; 100 nM): 96.3%; normalised viability (CAL-148 [8]; 10 nM): 116%; normalised viability (MFM-223; 100 nM): 97.3%; normalised viability (MDA-MB-231 [9]; 100 nM): 99.4%; normalised viability (HCC1143 [10]; 100 nM): 133%

Source: the supplement of paper PMC4862054
